From patent publication US7718815B2, “Alpha-aminoamide derivatives useful in the treatment of lower urinary tract disorders” (Newron Pharmaceuticals S.p.A., priority 2004, dated 2010)

What was measured:
[1] = system: acetic acid (AA) irritated bladders of rats; assay: Acute bladder irritation by acetic acid in rats (continuous infusion cystometrogram); type: in vivo, rat (female Sprague Dawley); details: anesthetized rats; 3, 10 and 30 mg/kg, intravenous cumulative doses; intravesical infusion of 0.15% acetic acid; FIG. 1
Method: (§1) The effect of a representative compound of formula I, (S)-(+)-2-[4-(2-fluorobenzyloxy)-benzylamino]-propanamide (NW-1029), on voiding function was tested in the following rat models of “Acute bladder irritation by acetic acid” and “Intermediate bladder irritation by cyclophosphamide (CYP)”.
(§2) Continuous infusion cystometrograms (0.04 ml/min) were used to measure intercontraction intervals (ICIs) which provide an estimate of bladder capacity. Cumulative dose response curves were obtained in each animal by administering intravenously increasing doses of the drug.
Experiments were performed using adult anesthetized female Sprague Dawley rats (170-200 g).
A catheter (PE-50) was inserted via a midline abdominal incision into the bladder through the bladder dome, and then intravesical pressure was measured to monitor bladder activity during continuous infusion of 0.15% of acetic acid. Intercontraction intervals (ICIs), maximal contraction pressure, and pressure thresholds inducing reflex bladder contraction were measured before and after intravesical infusion of acetic acid in NW-1029 treated rats.

[2] = system: cyclophosphamide (CYP) irritated bladders of rats; assay: Intermediate bladder irritation by cyclophosphamide (CYP) in rats (continuous infusion cystometrogram); type: in vivo, rat (female Sprague Dawley); details: 0.1 to 10 mg/kg/iv, CYP 150 mg/kg/ip one day before
Method: as §1, §2
Experiments were performed using both adult awake and anesthetized female Sprague Dawley rats (170-200 g).
Chemical cystitis was induced by CYP, which is metabolized to acrolein, an irritant eliminated in the urine. CYP (150 mg/kg/ip) was administered one day before the experiment.
NW-1029 was administered in a dose range from 0.1 to 10 mg/kg/iv.

## C[C@H](NCc1ccc(OCc2ccccc2F)cc1)C(N)=O [NW-1029, (S)-(+)-2-[4-(2-fluorobenzyloxy)-benzylamino]-propanamide]
[1]
  intercontraction interval (ICI), reversal of AA-induced reduction: significant reversal of the AA-induced reduction in the ICI
[2]; anesthetized rats, FIG. 3
  intercontraction interval (ICI): significantly increases the ICI
[2]; awake rats, FIG. 2
  intercontraction interval (ICI): significantly increases the ICI
